Data: patent US6372937B1, “Enhanced catalyzed reporter deposition” (priority 1998, dated 2002)
Values belong to the compound of their own block, whether it stands above or below them.

Key:
HRP [1] = molecular target: T1, HRP (Armoracia rusticana, UniProt P00433); assay: Enhanced CARD detection using biotinyl tyramide on human prostate tissue slides; type: biochemical, horseradish; details: enhancer at 20:1 (w/w) plus NaCl 2M, Streptavidin-HRP/diaminobenzidine readout
T1 sequence (P00433 31-338): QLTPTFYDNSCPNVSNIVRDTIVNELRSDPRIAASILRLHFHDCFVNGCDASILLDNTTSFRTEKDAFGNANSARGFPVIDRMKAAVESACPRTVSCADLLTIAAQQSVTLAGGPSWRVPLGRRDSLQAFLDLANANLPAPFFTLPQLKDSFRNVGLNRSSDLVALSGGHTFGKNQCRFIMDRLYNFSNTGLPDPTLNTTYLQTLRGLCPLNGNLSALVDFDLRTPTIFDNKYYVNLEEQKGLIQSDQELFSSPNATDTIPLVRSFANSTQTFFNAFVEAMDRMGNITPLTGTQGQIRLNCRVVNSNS
Experimental: Human prostate tissue slides (Dako) were deparaffinized and blocked for thirty minutes with TNB Blocking Buffer (TSA Indirect kit, NEN Life Science Products). Rabbit anti-human prostate specific antigen (Dako) diluted 1/100,000 in TNB buffer was incubated for one hour at room temperature. The slides were washed in TNT buffer (TSA Indirect kit) and then incubated with an anti-rabbit IgG-HRP conjugate (Roche) diluted 1/1000 in TNB buffer for one hour at room temperature.
Standard CARD detection was performed using the TSA Indirect kit, which utilizes biotinyl tyramide. Organic and salt enhanced CARD detection was performed using the TSA Indirect kit, adding N-(5-hydroxypentyl)-3-(p-hydroxyphcnyl)propionamide (structure 1) at a 20:1 (w/w) ratio to the biotinyl tyramide reagent and adding NaCl to the diluent to a final concentration of 2M. The slides were washed in TNT buffer, and Streptavidin-HRP (TSA Indirect kit) diluted 1/100 in TNB buffer was incubated for thirty minutes at room temperature. The slides were washed in TNT buffer and diaminobenzidine (NEN Life Science Products) was added and incubated for three minutes at room temperature. The slides were washed with water, and counterstained with Hematoxylin. The slides were then washed with water, phosphate buffered saline, water, dehydrated and mounted.

HRP [2] = molecular target: T1, HRP; assay: Enhanced CARD detection using cyanine 3 tyramide on human prostate tissue slides; type: biochemical, horseradish
Experimental: Human prostate tissue slides (Dako Corp., Carpinteria, Calif.) were deparaffinized and blocked for thirty minutes with TNB Blocking Buffer (TSA Direct Cyanine 3 kit, NEN Life Science Products, Boston, Mass.). Rabbit anti-human prostate specific antigen (Dako) diluted 1/40,000 in TNB buffer was incubated for one hour at room temperature. The slides were washed in TNT buffer (TSA Direct Cyanine 3 kit) and then incubated with an anti-rabbit IgG-HRP conjugate (Roche Molecular Biochemicals, Indianapolis, Ind.) diluted 1/1000 in TNB buffer for one hour at room temperature. Standard CARD detection was performed using the TSA Direct Cyanine 3 kit. Organic enhanced CARD detection was performed using the TSA Direct Cyanine 3 kit and adding p-iodophenyl boronic acid (structure 2) at a 20:1 (w/w) ratio to the cyanine 3 tyramide reagent. Organic and salt enhanced CARD detection was performed using the TSA Direct Cyanine 3 kit, adding p-iodophenyl boronic acid (structure 2) at a 20:1 (w/w) ratio to the cyanine 3 tyramide reagent and adding NaCl to the diluent to a final concentration of 2M. The slides were washed in TNT buffer, mounted with mounting medium and a coverslip.

HRP [3] = molecular target: T1, HRP; assay: Enhanced CARD detection using fluorescein tyramide on human prostate tissue slides; type: biochemical, horseradish
Experimental: Human prostate tissue slides (Dako) were deparaffinized and blocked for thirty minutes with TNB Blocking Buffer (TSA Direct Green kit, NEN Life Science Products). Rabbit anti-human prostate specific antigen (Dako) diluted 1/10,000 in TNB buffer was incubated for one hour at room temperature. The slides were washed in TNT buffer (TSA Direct Green kit) and then incubated with an anti-rabbit IgG-HRP conjugate (Roche) diluted 1/1000 in TNB buffer for one hour at room temperature. Standard CARD detection was performed using the TSA Direct Green kit, which utilizes fluorescein tyramide. Organic enhanced CARD detection was performed using the TSA Direct Green kit and adding p-iodophenyl boronic acid (structure 2) at a 20:1 (w/w) ratio to the fluorescein tyramide reagent. Organic and salt enhanced CARD detection was performed using the TSA Direct Green kit, adding p-iodophenyl boronic acid (structure 2) at a 20:1 (w/w) ratio to the fluorescein tyramide reagent and adding NaCl to the diluent to a final concentration of 2M. The slides were washed in TNT buffer, mounted with mounting medium and a coverslip.

HRP [4] = molecular target: T1, HRP; details: cited from earlier work
[5] = NaCl 2M in diluent added to p-iodophenyl boronic acid 20:1 (w/w)
[6] = enhancer at 20:1 (w/w) ratio to tyramide reagent

organic and salt enhanced vs standard CARD detection (FIG. 3A compared to FIG. 3B) (HRP [1]): striking difference
SMILES: O=C(CCc1ccc(O)cc1)NCCCCCO [N-(5-hydroxypentyl)-3-(p-hydroxyphcnyl)propionamide]

SMILES: [Cl-].[Na+] [NaCl]
addition of salt to the organic enhanced CARD detection (FIG. 1B compared to FIG. 1C) (HRP [2]; [5]): significant improvement | addition of salt to the organic enhanced CARD detection (FIG. 2B compared to FIG. 2C) (HRP [3]; [5]): very dramatic improvement

SMILES: c1c[nH]cn1 [imidazole]
effect on the oxidation of 4-chloro-1-naphthol (HRP [4]; substrate 4-chloro-1-naphthol): no effect | enhancement of the oxidation of p-phenylenediamine-pyrocatechol (HRP [4]; substrate combination p-phenylenediamine-pyrocatechol): two fold | enhancement of the oxidation of diaminobenzidine (HRP [4]; substrate diaminobenzidine): approximately four fold

organic enhanced vs standard CARD detection (FIG. 1A compared to FIG. 1B) (HRP [2]; [6]): very dramatic difference | organic enhanced vs standard CARD detection (FIG. 2A compared to FIG. 2B) (HRP [3]; [6]): significant difference
SMILES: OB(O)c1ccc(I)cc1 [p-iodophenyl boronic acid]
